Measured values as given in EP4800015A1, “AZABICYCLO DERIVATIVE AND PREPARATION METHOD THEREFOR, AND USE” (Zhejiang Hisun Pharmaceutical Co., Ltd., priority 2023, dated 2025).
Like-named read-outs stand apart in the source and are kept apart here.

Target: T1, recombinant human WRN (Homo sapiens, UniProt Q14191)
T1 construct: purchased BPS 101264
Experiment: Inhibition of WRN enzyme activity (ATPase), ADP-Glo Kinase Assay
Assay type: biochemical
Conditions: WRN protein 5 nM, Flap 0.1 nM, ATP 30 µM
Text: The following method was used to determine the degree of inhibition of recombinant human WRN ATPase activity by the compounds of the present disclosure in vitro. In this method, ADP-Glo™ Kinase Assay kit (catalog No. V9102) from Promega was used. Detailed experimental procedures can be found in the kit manual.
The experimental procedure was briefly described as follows: test compounds were first dissolved in DMSO to prepare stock solutions, followed by serial dilution using reaction buffer (30 mM Tris, pH 7.5, 2 mM MgCl2, 50 mM NaCl, 0.02% BSA, 0.1% Pluronic F127), with final concentrations of test compounds in the reaction system ranging from 1000 nM to 0.004 nM; WRN protein (purchased from BPS, catalog No. 101264), substrate 5-flap oligonucleotide (Flap26) (synthesized by Shanghai Generay Biotech Co., Ltd., sequence 5'-[…]-3'), and ATP working solution (from ADP-Glo™ Kinase Assay kit component V915A) were prepared using reaction buffer. Reactions were performed in 384-well microplates. At first the compounds and recombinant human WRN protein (final concentration 5 nM) were added to the wells and the plate was incubated at room temperature for 15 minutes, then Flap solution (final concentration 0.1 nM) and ATP solution (final concentration 30 µM) were added to the reaction solution and the plate was incubated at room temperature for 10 minutes. Subsequently, 5 µL of ADP-Glo Reagent was added to the reaction system and incubated at room temperature for 40 minutes. Then 10 µL of Kinase Detection Reagent was added to the reaction system and incubated at room temperature for 30 minutes. After the incubation was completed, chemiluminescence intensity values of each well were measured using a microplate reader in luminescence mode. The percentage inhibition of the compounds at each concentration was calculated by comparison with the luminescence intensity values of the control group (0.1% DMSO), and IC50 values of compounds were obtained by nonlinear regression analysis of compound concentration logarithm-inhibition rate using GraphPad Prism 9 software, as shown in Table 1.
The IC50 value results of the compounds of the present disclosure are expressed as AA and A, respectively as follows: "AA" indicates IC50 ≤ 1 nM; "A" indicates 1 nM < IC50 ≤ 100 nM. Table 1 IC50 of the compounds of the present disclosure for inhibiting WRN enzyme activity (ATPase)

T1 sequence (Q14191 whole entry): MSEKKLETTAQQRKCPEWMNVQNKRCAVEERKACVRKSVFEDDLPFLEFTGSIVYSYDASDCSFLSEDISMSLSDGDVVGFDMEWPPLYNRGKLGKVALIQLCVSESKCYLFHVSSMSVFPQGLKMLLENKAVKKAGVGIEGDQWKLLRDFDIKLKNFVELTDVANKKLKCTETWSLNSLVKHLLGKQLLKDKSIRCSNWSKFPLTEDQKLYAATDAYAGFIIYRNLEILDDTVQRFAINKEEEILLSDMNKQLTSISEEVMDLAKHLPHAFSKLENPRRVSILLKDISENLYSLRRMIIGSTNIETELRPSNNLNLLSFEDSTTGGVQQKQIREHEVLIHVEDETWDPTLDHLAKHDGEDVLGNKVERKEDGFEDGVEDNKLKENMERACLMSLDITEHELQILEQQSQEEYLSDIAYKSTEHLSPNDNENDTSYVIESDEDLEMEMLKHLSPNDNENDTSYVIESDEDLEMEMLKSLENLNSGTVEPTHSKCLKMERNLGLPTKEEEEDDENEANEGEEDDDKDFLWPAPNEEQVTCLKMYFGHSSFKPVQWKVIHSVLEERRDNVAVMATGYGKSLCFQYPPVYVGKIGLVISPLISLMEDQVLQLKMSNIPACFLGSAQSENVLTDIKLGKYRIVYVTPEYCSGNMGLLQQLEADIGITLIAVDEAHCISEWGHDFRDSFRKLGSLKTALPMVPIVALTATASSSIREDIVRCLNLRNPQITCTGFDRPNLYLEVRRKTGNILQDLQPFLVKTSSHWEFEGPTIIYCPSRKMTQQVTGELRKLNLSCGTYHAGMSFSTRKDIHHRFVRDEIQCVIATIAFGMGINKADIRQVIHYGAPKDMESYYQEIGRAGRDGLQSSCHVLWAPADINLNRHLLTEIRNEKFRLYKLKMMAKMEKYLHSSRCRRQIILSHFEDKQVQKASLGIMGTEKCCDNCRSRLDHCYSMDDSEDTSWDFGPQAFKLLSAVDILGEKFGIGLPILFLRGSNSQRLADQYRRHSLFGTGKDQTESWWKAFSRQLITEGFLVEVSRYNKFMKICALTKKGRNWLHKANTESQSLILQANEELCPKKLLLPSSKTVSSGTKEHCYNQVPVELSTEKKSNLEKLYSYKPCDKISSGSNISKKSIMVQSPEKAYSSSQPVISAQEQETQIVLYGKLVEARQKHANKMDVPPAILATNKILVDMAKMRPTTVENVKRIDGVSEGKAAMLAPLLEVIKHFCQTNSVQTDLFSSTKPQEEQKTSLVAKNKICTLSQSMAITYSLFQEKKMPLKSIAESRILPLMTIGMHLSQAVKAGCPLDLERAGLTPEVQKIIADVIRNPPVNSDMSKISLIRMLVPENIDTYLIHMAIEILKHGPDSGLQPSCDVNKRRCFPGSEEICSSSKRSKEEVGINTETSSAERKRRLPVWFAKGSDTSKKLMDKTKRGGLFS

| Structure (SMILES) | IC50 (read-out: IC50) [nM] | IC50 [nM] |
| --- | --- | --- |
| CCc1c(N2CCN(C(=O)c3ccncc3O)CC2)c(=O)n2nc(C3=CCCCCC3)nc2n1CC(=O)Nc1ccc(C(C)(C)C)cc1 [Example 24, N-(4-(tert-butyl)phenyl)-2-(2-(cyclohept-1-en-1-yl)-5-ethyl-6-(4-(3-hydroxyisonicotinoyl)piperazin-1-yl)-7-oxo-[1,2,4]triazolo[1,5-a]pyrimidin-4(7H)-yl)acetamide] | 1 to 100 | – |
| CCc1c(N2CCN(C(=O)c3ccncc3O)CC2)c(=O)n2nc(C3=CCCCCC3)nc2n1CC(=O)Nc1ccc(S(F)(F)(F)(F)F)cc1 [Example 25, 2-(2-(cyclohept-1-en-1-yl)-5-ethyl-6-(4-(3-hydroxyisonicotinoyl)piperazin-1-yl)-7-oxo-[1,2,4]triazolo[1,5-a]pyrimidin-4(7H)-yl)-N-(4-(pentafluoro-λ^6-sulfaneyl)phenyl)acetamide] | 1 to 100 | – |
| CCc1c(N2CCN(C(=O)c3ncnc(C)c3O)CC2)c(=O)n2nc(C3=CCCCCC3)nc2n1CC(=O)Nc1ccc(C(C)(C)C)cc1 [Example 26, N-(4-(tert-Butyl)phenyl)-2-(2-(cyclohept-1-en-1-yl)-5-ethyl-6-(4-(5-hydroxy-6-methylpyrimidine-4-carbonyl)piperazin-1-yl)-7-oxo-[1,2,4]triazolo[1,5-a]pyrimidin-4(7H)-yl)acetamide] | 1 to 100 | – |
| CCc1nc2n(CC(=O)Nc3ccc(C(F)(F)F)cc3Cl)c(CC)c(N3CCN(C(=O)c4ncnc(C)c4O)CC3)c(=O)n2n1 [Example 28, N-(2-chloro-4-(trifluoromethyl)phenyl)-2-(2,5-diethyl-6-(4-(5-hydroxy-6-methylpyrimidine-4-carbonyl)piperazin-1-yl)-7-oxo-[1,2,4]triazolo[1,5-a]pyrimidin-4(7H)-yl)acetamide] | 1 to 100 | – |
| Cc1ncnc(C(=O)N2CCN(c3c(C)n(CC(=O)Nc4ccc(C(F)(F)F)cc4Cl)c4nc(C5=CC6CC(=O)CC6C5)nn4c3=O)CC2)c1O (stereo not shown) [Example 32, N-(2-chloro-4-(trifluoromethyl)phenyl)-2-(6-(4-(5-hydroxy-6-methylpyrimidine-4-carbonyl)piperazin-1-yl)-5-methyl-7-oxo-2-(5-oxo-1,3a,4,5,6,6a-hexahydropentalen-2-yl)-[1,2,4]triazolo[1,5-a]pyrimidin-4(7H)-yl)acetamide] | 1 to 100 | – |
| CCc1c(N2CCN(C(=O)c3ncnc(C)c3O)CC2)c(=O)n2nc(-c3coc4ccccc34)nc2n1CC(=O)Nc1ccc(C(F)(F)F)cc1Cl [Example 35, 2-(2-(benzofuran-3-yl)-5-ethyl-6-(4-(5-hydroxy-6-methylpyrimidine-4-carbonyl)piperazin-1-yl)-7-oxo-[1,2,4]triazolo[1,5-a]pyrimidin-4(7H)-yl)-N-(2-chloro-4-(trifluoromethyl)phenyl) acetamide] | – | 1 to 100 |
| CCc1c(N2CCN(C(=O)c3ncnc(C)c3O)CC2)c(=O)n2nc(/C=C(\C)C3CC3)nc2n1CC(=O)Nc1ccc(C(F)(F)F)cc1Cl [Example 36, (E)-N-(2-chloro-4-(trifluoromethyl)phenyl)-2-(2-(2-cyclopropylprop-1-en-1-yl)-5-ethyl-6-(4-(5-hydroxy-6-methylpyrimidine-4-carbonyl)piperazin-1-yl)-7-oxo-[1,2,4]triazolo[1,5-a]pyrimidin-4(7H)-yl)acetamide] | 1 to 100 | – |
| CCc1c(N2CCN(C(=O)c3ncnc(C)c3O)CC2)c(=O)n2nc(/C=C/c3ccccn3)nc2n1CC(=O)Nc1ccc(C(F)(F)F)cc1Cl [Example 37, (E)-N-(2-chloro-4-(trifluoromethyl)phenyl)-2-(5-ethyl-6-(4-(5-hydroxy-6-methylpyrimidine-4-carbonyl)piperazin-1-yl)-7-oxo-2-(2-(pyridin-2-yl)vinyl)-[1,2,4]triazolo[1,5-a]pyrimidin-4(7H)-yl)a cetamide] | 1 to 100 | – |
| CCc1c(N2CCN(C(=O)c3ncccc3O)CC2)c(=O)n2nc(C3=CC4CC4C3)nc2n1CC(=O)Nc1ccc(C(F)(F)F)cc1Cl (stereo not shown) [Example 38, 2-(2-(bicyclo[3.1.0]hex-2-en-3-yl)-5-ethyl-6-(4-(3-hydroxypicolinoyl)piperazin-1-yl)-7-oxo-[1,2, 4]triazolo[1,5-a]pyrimidin-4(7H)-yl)-N-(2-chloro-4-(trifluoromethyl)phenyl)acetamide] | < 1 | – |
| CCc1c(N2CCN(C(=O)c3ncccc3O)CC2)c(=O)n2nc(C3=CC4CCC3C4)nc2n1CC(=O)Nc1ccc(C(F)(F)F)cc1Cl (stereo not shown) [Example 41, 2-(2-(bicyclo[2.2.1]hept-2-en-2-yl)-5-ethyl-6-(4-(3-hydroxypicolinoyl)piperazin-1-yl)-7-oxo-[1,2,4]triazolo[1,5-a]pyrimidin-4(7H)-yl)-N-(2-chloro-4-(trifluoromethyl)phenyl)acetamide] | 1 to 100 | – |
| CCc1c(N2CCN(C(=O)c3ccncc3O)CC2)c(=O)n2nc(C3=CCCCCC3)nc2n1CC(=O)Nc1ccc(C(F)(F)F)cc1C [Example 42, 2-(2-(cyclohept-1-en-1-yl)-5-ethyl-6-(4-(3-hydroxyisonicotinoyl)piperazin-1-yl)-7-oxo-[1,2,4]triazolo[1,5-a]pyrimidin-4(7H)-yl)-N-(2-methyl-4-(trifluoromethyl)phenyl)acetamide] | 1 to 100 | – |
| CCc1c(N2CCN(C(=O)c3ccncc3O)CC2)c(=O)n2nc(C3=CCCCCC3)nc2n1CC(=O)Nc1ccc(C(F)(F)F)cc1OC [Example 43, 2-(2-(cyclohept-1-en-1-yl)-5-ethyl-6-(4-(3-hydroxyisonicotinoyl)piperazin-1-yl)-7-oxo-[1,2,4]triazolo[1,5-a]pyrimidin-4(7H)-yl)-N-(2-methoxy-4-(trifluoromethyl)phenyl)acetamide] | 1 to 100 | – |
| CCc1c(N2CCN(C(=O)c3ccncc3O)CC2)c(=O)n2nc(C3=CCCCCC3)nc2n1CC(=O)Nc1ccc(C(F)(F)F)cc1F [Example 44, 2-(2-(cyclohept-1-en-1-yl)-5-ethyl-6-(4-(3-hydroxyisonicotinoyl)piperazin-1-yl)-7-oxo-[1,2,4]triazolo[1,5-a]pyrimidin-4(7H)-yl)-N-(2-fluoro-4-(trifluoromethyl)phenyl)acetamide] | 1 to 100 | – |
| CCc1c(N2CCN(C(=O)c3ncccc3O)CC2)c(=O)n2nc(C3=CCCCCC3)nc2n1CC(=O)Nc1ccc(C(F)(F)F)cc1Cl [Example 45, N-(2-chloro-4-(trifluoromethyl)phenyl)-2-(2-(cyclohept-1-en-1-yl)-5-ethyl-6-(4-(3-hydroxypicolinoyl)piperazin-1-yl)-7-oxo-[1,2,4]triazolo[1,5-a]pyrimidin-4(7H)-yl)acetamide] | 1 to 100 | – |
| CCc1c(N2CCN(C(=O)c3ncccc3O)CC2)c(=O)n2nc(C3=CCCCCC3)nc2n1CC(=O)Nc1ccc(S(F)(F)(F)(F)F)cc1 [Example 46, 2-(2-(cyclohept-1-en-1-yl)-5-ethyl-6-(4-(3-hydroxypicolinoyl)piperazin-1-yl)-7-oxo-[1,2,4]triazolo[1,5-a]pyrimidin-4(7H)-yl)-N-(4-(pentafluoro-λ^6-sulfaneyl)phenyl)acetamide] | 1 to 100 | – |
| CCc1c(N2CCN(C(=O)c3ncnc(C)c3O)CC2)c(=O)n2nc(C3=CCCCCC3)nc2n1CC(=O)Nc1ccc(C(F)(F)F)cc1OC [Example 48, 2-(2-(cyclohept-1-en-1-yl)-5-ethyl-6-(4-(5-hydroxy-6-methylpyrimidine-4-carbonyl)piperazin-1-yl)-7-oxo-[1,2,4]triazolo[1,5-a]pyrimidin-4(7H)-yl)-N-(2-methoxy-4-(trifluoromethyl)phenyl)ace tamide] | 1 to 100 | – |
| CCc1c(N2CCN(C(=O)c3ncnc(C)c3O)CC2)c(=O)n2nc(C3=CC4(CCC4)C3)nc2n1CC(=O)Nc1ccc(C(F)(F)F)cc1Cl [Example 50, N-(2-chloro-4-(trifluoromethyl)phenyl)-2-(5-ethyl-6-(4-(5-hydroxy-6-methylpyrimidine-4-carbonyl)piperazin-1-yl)-7-oxo-2-(spiro[3.3]hept-1-en-2-yl)-[1,2,4]triazolo[1,5-a]pyrimidin-4(7H)-yl)ac etamide] | 1 to 100 | – |
| CCc1c(N2CCN(C(=O)c3ncccc3O)CC2)c(=O)n2nc(C3=CC4(CCC4)C3)nc2n1CC(=O)Nc1ccc(C(F)(F)F)cc1Cl [Example 51, N-(2-chloro-4-(trifluoromethyl)phenyl)-2-(5-ethyl-6-(4-(3-hydroxypicolinoyl)piperazin-1-yl)-7-oxo-2-(spiro[3.3]hept-1-en-2-yl)-[1,2,4]triazolo[1,5-a]pyrimidin-4(7H)-yl)acetamide] | 1 to 100 | – |
| CCc1c(N2CCN(C(=O)c3ncccc3O)CC2)c(=O)n2nc(C3=CC4CC(=O)CC4C3)cc2n1CC(=O)Nc1ccc(C(F)(F)F)cc1Cl (stereo not shown) [Example 56, N-(2-chloro-4-(trifluoromethyl)phenyl)-2-(5-ethyl-6-(4-(3-hydroxypicolinoyl)piperazin-1-yl)-7-oxo-2-(5-oxo-1,3a,4,5,6,6a-hexahydropentalen-2-yl)pyrazolo[1,5-a]pyrimidin-4(7H)-yl)acetamide] | 1 to 100 | – |
